Measurements reported in patent US11578315B2, “Truncated guinea pig L-asparaginase variants and methods of use” (THE BOARD OF TRUSTEES OF THE UNIVERSITY OF ILLINOIS, priority 2017, dated 2023).
“And” between values parts separate entries of the source, which are not always exact repeats. Equal entries are not always repeated.

How the values were obtained:
[1] = target: T1, E. coli L-asparaginase ansB (type II) (Escherichia coli, UniProt P00805); test: L-asparaginase kinetics, NADH-dependent enzyme-coupled assay; assay type: biochemical; settings: 50 μM Asn, pH 7.5, 37° C.
T1 construct: made in house
Protocol: (§1) The catalytic activity of the clones was determined using a spectroscopic NADH-dependent enzyme-coupled assay (Fernandez, et al. (2013) Int. J. Clin. Exp. Med. 6:478-487; Hejazi, et al. (2002) Biochem. J. 364:129-136), which measures the production of L-aspartic acid (Asp) through the 1:1 oxidation of reduced NADH. The conversion of NADH to NAD was measured spectrophotometrically as a decrease in absorbance at 340 nm at 37° C. All measurements were taken in triplicate in a buffer containing 100 mM Tris pH 7.5, 0.4 mM α-ketoglutarate and 0.4 mM NADH with 50 nM (hASNase1, hN-gC); 10 nM (gpASNase1, gN-hC, 63-hC, 64-hC, 65-hC, SA-hC) or 3 nM (ansB) enzyme. Glutamic-oxalacetic transaminase (Sigma) and malic dehydrogenase (Sigma) were helper enzymes for the coupled enzymatic reactions; 5 and 1 unit were used, respectively. Data were fit to the Michaelis-Menten equation using SigmaPlot (Systat Software Inc). Due to the cooperative nature of hASNase1, this enzyme was analyzed using the Hill equation.

[2] = target: T2, guinea pig L-asparaginase (gpASNase1, GpA), wild type, full length (GpA-FL), SEQ ID NO:1 (Cavia porcellus, UniProt H0W0T5); test: as above; assay type: biochemical
T2 construct: Full length GpA (GpA-FL); made in house
T2 sequence (H0W0T5 1-565): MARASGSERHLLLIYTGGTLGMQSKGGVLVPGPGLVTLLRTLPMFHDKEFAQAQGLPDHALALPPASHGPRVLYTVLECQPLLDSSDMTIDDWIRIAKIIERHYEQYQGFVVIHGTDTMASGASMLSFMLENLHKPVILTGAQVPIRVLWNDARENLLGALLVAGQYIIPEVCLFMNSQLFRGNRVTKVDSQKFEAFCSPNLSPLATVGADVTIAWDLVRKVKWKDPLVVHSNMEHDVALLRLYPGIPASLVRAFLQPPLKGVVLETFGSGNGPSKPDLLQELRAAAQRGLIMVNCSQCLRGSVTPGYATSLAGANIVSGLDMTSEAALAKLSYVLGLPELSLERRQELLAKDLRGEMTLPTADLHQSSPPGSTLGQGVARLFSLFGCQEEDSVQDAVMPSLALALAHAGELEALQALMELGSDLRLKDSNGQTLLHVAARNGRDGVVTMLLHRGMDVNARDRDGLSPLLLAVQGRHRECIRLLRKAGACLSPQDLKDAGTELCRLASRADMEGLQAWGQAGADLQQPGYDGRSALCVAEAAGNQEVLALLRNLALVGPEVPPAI
Protocol: as §1

[3] = target: human L-asparaginase 1 (hASNase1), wild type, SEQ ID NO:2 (Homo sapiens, UniProt Q86U10); test: as above; assay type: biochemical
Protocol: as §1

[4] = system: gN-hC, chimera of guinea pig gpASNase1 N-terminal domain (residue 1-359) and human hASNase1 C-terminal domain (residue 362-573), SEQ ID NO:37; test: as above; assay type: biochemical; settings: pH 7.5, 37° C.
From the text: (§2) To build the clone hN-gC, the sequence corresponding to the N-terminal domain of hASNase1 (hN, residue 1-361) was amplified using the primers NdeI-hA_F1 and gpA360-367_R and the sequence corresponding to the C-terminal domain of gpASNase1 (gC, residue 360-565) was amplified using the primers hA354-361_F and gpA-BamHI_R565. To build the clone gN-hC the sequence corresponding to the N-terminal domain of gpASNase1 (gN, residue 1-359) was amplified using the primers NdeI-gpA_F1 and hA362-369_R and the sequence corresponding to the C-terminal domain of hASNase1 (hC, residue 362-573) was amplified using the primers gpA352-359_F and hA_BamHI_R573. The chimera was then constructed by PCR fusion of fragment hN and gC or gN and hC using the appropriate primers and then subsequently cloned into the pBAD and pET vectors.
as §1
(§3) Accordingly, two chimeras were generated; one, which was referred to as hN-gC and included the human N-terminal domain fused to the guinea pig C-terminal domain, and the second, which was referred to as gN-hC and included the guinea pig N-terminal domain fused to the human C-terminal domain (FIG. 1, Table 3). In vitro kinetic characterization of these chimeras validated the prediction, with hN-gC displaying kinetic properties similar to hASNase1 and gN-hC displaying kinetic properties similar to gpASNase1 (Table 4).

[5] = system: hN-gC, chimera of human hASNase1 N-terminal domain (residue 1-361) and guinea pig gpASNase1 C-terminal domain (residue 360-565), SEQ ID NO:38; test: as above; assay type: biochemical; settings: pH 7.5, 37° C.
From the text: as §2, §1, §3

[6] = system: 63N-hC, shuffled hASNase1/gpASNase1 clone #63 with human C-terminal domain, SEQ ID NO:39; test: as above; assay type: biochemical, human / guinea pig; settings: pH 7.5, 37° C.
Protocol: as §1
(§4) Since the goal was to identify a clone with gpASNase1 kinetic properties but with the highest sequence homology to hASNase1, the four clones, #63, #64, #65 and # SA, were engineered by replacing their shuffled C-terminal domain with the exact sequence of the human C-terminal domain (FIG. 1).
(§5) For determining the precise kinetic properties of 63N-hC, 64N-hC, 65N-hC and SAN-hC, the genes encoding these enzymes were sub-cloned into a pET14b expression vector and expressed in C41 E. coli cells. The purified clones were tested for their L-asparaginase activity (Table 4). E. coli L-asparaginase ansB was also included in order to compare the clones to an L-asparaginase approved for cancer therapy. […] Importantly, the kobs@50 μM values for the humanized clones were also in this range, being 17 sec^−1, 10 sec^−1, 17 sec^−1 and 6 sec^−1 for clones 63N-hC, 64N-hC, 65N-hC and SAN-hC, respectively.

[7] = system: 64N-hC, shuffled hASNase1/gpASNase1 clone #64 with human C-terminal domain, SEQ ID NO:40; test: as above; assay type: biochemical, human / guinea pig; settings: pH 7.5, 37° C.
Protocol: as §1, §4, §5

[8] = system: 65N-hC, shuffled hASNase1/gpASNase1 clone #65 with human C-terminal domain, SEQ ID NO:41; test: as above; assay type: biochemical, human / guinea pig; settings: pH 7.5, 37° C.
Protocol: as §1, §4, §5

[9] = system: SAN-hC, shuffled hASNase1/gpASNase1 clone #SA with human C-terminal domain, SEQ ID NO:42; test: as above; assay type: biochemical, human / guinea pig; settings: pH 7.5, 37° C.
Protocol: as §1, §4, §5

[10] = target: T3, guinea pig L-asparaginase (GpA) variant GpA369, residues 1-369, SEQ ID NO:5 (Cavia porcellus, UniProt H0W0T5); test: L-asparaginase activity, kobs at 2 mM Asn; assay type: biochemical
T3 construct: GpA369; 1-369; SUMO (cleaved yes); made in house
Protocol: as §1

[11] = target: T4, guinea pig L-asparaginase (GpA) variant GpA369-C198A + K225C + E340C + E49C, SEQ ID NO:56 (Cavia porcellus, UniProt H0W0T5, C198A/E340C/E49C/K225C); test: L-asparaginase activity, kobs at 2 mM Asn; assay type: biochemical
T4 construct: made in house
Protocol: as §1

[12] = target: T5, guinea pig L-asparaginase (GpA) variant GpA369-C198A + K225C + E340C, SEQ ID NO:55 (Cavia porcellus, UniProt H0W0T5, C198A/E340C/K225C); test: L-asparaginase activity, kobs at 2 mM Asn; assay type: biochemical
T5 construct: made in house
Protocol: as §1

[13] = target: T6, guinea pig L-asparaginase (GpA) variant GpA369-C198A + K225C, SEQ ID NO:54 (Cavia porcellus, UniProt H0W0T5, C198A/K225C); test: L-asparaginase activity, kobs at 2 mM Asn; assay type: biochemical
T6 construct: GpA369-C198A + K225C; 99.4%; 71.7%; 54; made in house
Protocol: as §1

[14] = target: T7, guinea pig L-asparaginase (GpA) variant GpA369-C198A, SEQ ID NO:51 (Cavia porcellus, UniProt H0W0T5, C198A); test: L-asparaginase activity, kobs at 2 mM Asn; assay type: biochemical
T7 construct: made in house
Protocol: as §1

[15] = target: T8, guinea pig L-asparaginase (GpA) variant 10K-PEGylated-GpA369-C198A, SEQ ID NO:51 (Cavia porcellus, UniProt H0W0T5, C198A); test: L-asparaginase activity, kobs at 2 mM Asn; assay type: biochemical; settings: linear PEG
T8 construct: made in house
Protocol: as §1
(§6) Each of the variants listed in Table 9 were recombinantly expressed, purified and PEGylated with one or more of mPEG-10K, mPEG-20K and mPEG-40K (Table 10). As determined by SDS-PAGE analysis, the size of the PEGylated enzymes increased with an increase in the number of active cysteines. For example, using maleimide-PEG10K, GpA369(hum)-C198A migrated at a higher molecular weight after PEGylation (due to the extra 10K Da supplied by the PEG), and GpA369(hum)-C198A+R52C migrated at an even higher apparent molecular weight since this variant can react with two PEG molecules (for a total of an extra 20K Da supplied by two 10K molecules linked to the enzyme). Of note, the GpA369-C198A-K225C-E340C-E49C-Q257C mutant was prepared, expressed, purified and PEGylated with mPEG-10K.

[16] = target: T9, guinea pig L-asparaginase (GpA) variant 20K-PEGylated-GpA369-C198A, SEQ ID NO:51 (Cavia porcellus, UniProt H0W0T5, C198A); test: L-asparaginase activity, kobs at 2 mM Asn; assay type: biochemical; settings: linear PEG
T9 construct: made in house
Protocol: as §1, §6

[17] = target: T10, guinea pig L-asparaginase (GpA) variant 40K-PEGylated-GpA369-C198A, SEQ ID NO:51 (Cavia porcellus, UniProt H0W0T5, C198A); test: L-asparaginase activity, kobs at 2 mM Asn; assay type: biochemical; settings: linear PEG
T10 construct: made in house
Protocol: as §1, §6

[18] = system: guinea pig L-asparaginase (gpASNase1, GpA), wild type, SEQ ID NO:1; settings: Schalk, et al. (2014), cited from earlier work
[19] = system: E. coli L-asparaginase iiiA; settings: in words; cited from earlier work
[20] = system: human L-asparaginase type I (hASNase1), SEQ ID NO:2; settings: in words; Karamitros & Konrad (2014); Schalk, et al. (2014); cited from earlier work

human L-asparaginase 1 (hASNase1), wild type, SEQ ID NO:2, sequence (Q86U10 whole entry): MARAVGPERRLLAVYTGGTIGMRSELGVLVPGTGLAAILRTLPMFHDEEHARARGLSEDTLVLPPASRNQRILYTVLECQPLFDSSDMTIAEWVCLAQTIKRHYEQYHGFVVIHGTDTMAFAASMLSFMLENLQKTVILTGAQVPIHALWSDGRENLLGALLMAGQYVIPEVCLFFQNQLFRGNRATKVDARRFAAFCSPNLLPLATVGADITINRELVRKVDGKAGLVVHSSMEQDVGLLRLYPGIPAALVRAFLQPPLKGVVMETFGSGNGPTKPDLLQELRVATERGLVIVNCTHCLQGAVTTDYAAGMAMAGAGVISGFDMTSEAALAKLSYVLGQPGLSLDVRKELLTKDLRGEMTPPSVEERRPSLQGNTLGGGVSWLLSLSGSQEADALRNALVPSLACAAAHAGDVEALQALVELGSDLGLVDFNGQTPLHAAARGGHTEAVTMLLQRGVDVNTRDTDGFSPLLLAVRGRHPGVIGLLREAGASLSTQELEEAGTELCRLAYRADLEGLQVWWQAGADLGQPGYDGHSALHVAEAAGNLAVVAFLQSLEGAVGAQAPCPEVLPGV
T1 sequence (P00805 23-348): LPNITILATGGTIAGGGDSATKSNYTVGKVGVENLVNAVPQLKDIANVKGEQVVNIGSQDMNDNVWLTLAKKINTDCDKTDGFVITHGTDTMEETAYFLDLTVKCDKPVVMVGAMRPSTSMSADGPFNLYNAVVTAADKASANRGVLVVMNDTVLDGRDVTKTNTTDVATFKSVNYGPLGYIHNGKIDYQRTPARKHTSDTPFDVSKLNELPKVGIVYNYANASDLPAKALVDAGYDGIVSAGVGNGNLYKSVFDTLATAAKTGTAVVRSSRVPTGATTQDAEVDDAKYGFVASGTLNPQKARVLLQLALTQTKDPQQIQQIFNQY
T4 sequence (H0W0T5 1-369 E49C/C198A/K225C/E340C): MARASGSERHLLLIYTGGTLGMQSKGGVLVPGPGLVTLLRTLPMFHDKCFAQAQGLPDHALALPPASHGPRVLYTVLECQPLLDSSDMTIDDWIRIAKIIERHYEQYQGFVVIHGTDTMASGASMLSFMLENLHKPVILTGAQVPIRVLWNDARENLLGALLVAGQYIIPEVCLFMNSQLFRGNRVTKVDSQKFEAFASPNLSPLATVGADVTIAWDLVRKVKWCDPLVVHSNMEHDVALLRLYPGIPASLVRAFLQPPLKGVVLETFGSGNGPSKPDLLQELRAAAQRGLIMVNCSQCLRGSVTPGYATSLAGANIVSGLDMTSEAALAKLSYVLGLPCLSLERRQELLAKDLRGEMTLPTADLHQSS
T8 sequence (H0W0T5 1-369 C198A): as the sequence (H0W0T5 1-369 E49C/C198A/K225C/E340C) above, with C49E, C225K, C340E counted along it
T9 sequence (H0W0T5 1-369 C198A): as the sequence (H0W0T5 1-369 E49C/C198A/K225C/E340C) above, with C49E, C225K, C340E counted along it
T10 sequence (H0W0T5 1-369 C198A): as the sequence (H0W0T5 1-369 E49C/C198A/K225C/E340C) above, with C49E, C225K, C340E counted along it
T7 sequence (H0W0T5 1-369 C198A): as the sequence (H0W0T5 1-369 E49C/C198A/K225C/E340C) above, with C49E, C225K, C340E counted along it
T5 sequence (H0W0T5 1-369 C198A/K225C/E340C): as the sequence (H0W0T5 1-369 E49C/C198A/K225C/E340C) above, with C49E counted along it
T6 sequence (H0W0T5 1-369 C198A/K225C): as the sequence (H0W0T5 1-369 E49C/C198A/K225C/E340C) above, with C49E, C340E counted along it

SMILES: NC(=O)C[C@H](N)C(=O)O [Asn, L-asparagine]
- kobs @50 μM [1]: 41 ± 0.3 s⁻¹
- kobs @50 μM ([2]; 50 μM Asn, pH 7.5, 37° C.): 20 s⁻¹ and 20 ± 1 s⁻¹
- kobs at 2 mM ASN ([2]; 2 mM Asn, full length GpA): 41 s⁻¹
- Km ([2]; pH 7.5, 37° C., 10 nM enzyme): 50 ± 7 µM
- kcat ([2]; pH 7.5, 37° C., 10 nM enzyme): 41 ± 2 s⁻¹
- kcat ([3]; Hill-equation (n = 2.1), pH 7.5, 37° C., 50 nM enzyme): 17 ± 0.8 s⁻¹
- Hill coefficient n ([3]; Hill-equation fit): *Kinetic parameters using the Hill-equation (n = 2.1)
- kobs @50 μM ([4]; 50 μM Asn): 14 ± 1 s⁻¹
- kcat/Km [4]: 0.7 sec^−1μM^−1
- Km ([4]; 10 nM enzyme): 35 µM
- kcat ([4]; 10 nM enzyme): 24 ± 1 s⁻¹
- kcat/Km [5]: 0.004 sec^−1μM^−1
- Km ([5]; 50 nM enzyme): 3800 ± 120 µM
- kcat ([5]; 50 nM enzyme): 14 ± 0.5 s⁻¹
- kobs @50 μM ([6]; 50 μM Asn): 17 s⁻¹ and 17 ± 0.5 s⁻¹
- kcat/Km [6]: 0.7 sec^−1μM^−1
- Km ([6]; 10 nM enzyme): 47 µM
- kcat ([6]; 10 nM enzyme): 32 ± 0.6 s⁻¹
- kobs @50 μM ([7]; 50 μM Asn): 10 s⁻¹ and 10 ± 1 s⁻¹
- kcat/Km [7]: 0.3 sec^−1μM^−1
- Km ([7]; 10 nM enzyme): 202 ± 17 µM
- kcat ([7]; 10 nM enzyme): 60 ± 2 s⁻¹
- kobs @50 μM ([8]; 50 μM Asn): 17 s⁻¹ and 17 ± 1 s⁻¹
- kcat/Km [8]: 0.5 sec^−1μM^−1
- Km ([8]; 10 nM enzyme): 74 µM
- kcat ([8]; 10 nM enzyme): 40 ± 1 s⁻¹
- kobs @50 μM ([9]; 50 μM Asn): 6 s⁻¹ and 6 ± 1 s⁻¹
- kcat/Km [9]: 0.2 sec^−1μM^−1
- Km ([9]; 10 nM enzyme): 165 µM
- kcat ([9]; 10 nM enzyme): 32 ± 2 s⁻¹
- kobs at 2 mM ASN [10]: 44 s⁻¹
- kobs at 2 mM ASN [11]: 41.6 s⁻¹
- kobs at 2 mM ASN [12]: 42.4 s⁻¹
- kobs at 2 mM ASN [13]: 41.4 s⁻¹
- kobs at 2 mM ASN [14]: 43.3 s⁻¹
- kobs at 2 mM ASN [15]: 83.3 s⁻¹
- kobs at 2 mM ASN [16]: 83.7 s⁻¹
- kobs at 2 mM ASN [17]: 76.5 s⁻¹
- reaction rate (kcat) [18]: approximately 39 s^−1
- Km for Asn ([18]; in words): in the micromolar range
- Km ([18]; read-out: Km for Asn): 58 µM
- Km value for Asn [19]: very high
- Km for Asn [20]: in the millimolar range
